From patent US20080234629A1, “WATER ELECTROLYSIS TO FACILITATE DRUG DELIVERY BY IONTOPHORESIS” (priority 2007, published 2008)

Assay: Solubility of acyclovir in the aqueous portion of the formulation, from propylene glycol/water solubility measurements
Assay type: physicochemical
Settings: estimated from propylene glycol/water solubility measurements
From the text: Assuming that the electrolysis is 100% efficient, the expected proton generation is […] (0.4 mA×600 sec×6.2×10^18, coulomb, ÷[…]; assuming each electron generate one proton). Thus the electrolysis of water provides enough protons to ionize the soluble portion of the dose. Since the current density in the invented system is typical for iontophoresis, the rate of proton generation in this system can be realized in other iontophoretic systems. Because the coulombic dose in this iontophoretic system is at the low end of iontophoretic doses, larger quantities of protons could be generated for use in other applications.

Nc1nc2c(ncn2COCCO)c(=O)[nH]1 [Acyclovir]
solubility of acyclovir in the aqueous portion of the formulation: ~0.3 % by weight
